Drawing on patent US11485745B2, “Amido spirocyclic amide and sulfonamide derivatives” (Valo Health, Inc., priority 2012, dated 2022), this text covers IC50 for 15 molecules.

The first test deals with A2780 cells. Description: In-Vitro Cell Proliferation Assay (A2780, sulforhodamine B, 72 hours). Conditions: Homo sapiens, A2780, 72 h, SRB. The test is classed as cell-based.
`CC(C)C(=O)N1CCC2(CC1)CC2CNC(=O)c1cc2cnccc2[nH]1` (stereo not drawn) [Example 12]: inhibition was half-maximal at 2000 nM (IC50).
On the same count and under the same terms, to `CC(C)(C)CS(=O)(=O)N1CCC2(CC1)CC2CNC(=O)c1cc2ccncc2[nH]1` (stereo not drawn) [Example 379, N-[[6-(2,2-dimethylpropylsulfonyl)-6-azaspiro[2.5]octan-2-yl]methyl]-1H-pyrrolo[3,2-c]pyridine-2-caarboxamide] belongs 2000 nM; to `CC(C)(O)CCC(=O)N1CCC2(CC1)CC2CNC(=O)N1Cc2ccncc2C1` (stereo not drawn) [Example 360, N-[[6-(4-hydroxy-4-methyl-pentanoyl)-6-azaspiro[2.5]octan-2-yl]methyl]-1,3-dihydropyrrolo[3,4-c]pyridine-2-carboxamide], 50.9 nM; to `O=C(CCc1cccnc1)N1CCC2(CC1)CC2CNC(=O)N1Cc2ccncc2C1` (stereo not drawn) [Example 209, N-[[6-[3-(3-pyridyl)propanoyl]-6-azaspiro[2.5]octan-2-yl]methyl]-1,3-dihydropyrrolo[3,4-c]pyridine-2-carboxamide], 203 nM.
Same read-out and setting: with `CCC(=O)N1CCC2(CC1)CC2CNC(=O)c1cc2cnccc2[nH]1` (stereo not drawn) [Example 20] the figure was 2000 nM.
Still for that read-out and setting: to `O=C(NCC1CC12CCN(C(=O)c1cc(C(F)(F)F)[nH]n1)CC2)N1Cc2ccncc2C1` (stereo not drawn) [Example 396, N-[[6-[5-(trifluoromethyl)-1H-pyrazole-3-carbonyl]-6-azaspiro[2.5]octan-2-yl]methyl]-1,3-dihydropyrrolo[3,4-c]pyridine-2-carboxamdie] belongs 17.5 nM; to `O=C(CCC1CCCCC1)N1CCC2(CC1)CC2CNC(=O)N1Cc2ccncc2C1` (stereo not drawn) [Example 197, N-[[6-(3-cyclohexylpropanoyl)-6-azaspiro[2.5]octan-2-yl]methyl]-1,3-dihydropyrrolo[3,4-c]pyridine-2-carboxamide], 9.61 nM.
For the molecule `CC(C)(C)CS(=O)(=O)N1CCC2(CC1)CC2CNC(=O)N1Cc2ccncc2C1` (stereo not drawn) [Example 381, N-[[6-(2,2-dimethylpropylsulfonyl)-6-azaspiro[2.5]octan-2-yl]methyl]-1,3-dihydropyrrolo[3,4-c]pyridine-2-carboxamide], the IC50 (in general, the concentration that inhibits the measured activity by half) was found to be 55.4 nM.
Still for that read-out and setting: with `CC(C)(O)COCC(=O)N1CCC2(CC1)CC2CNC(=O)N1Cc2ccncc2C1` (stereo not drawn) [Example 393, N-[[6-[2-(2-hydroxy-2-methyl-propoxy)acetyl]-6-azaspiro[2.5]octan-2-yl]methyl]-1,3-dihydropyrrolo[3,4-c]pyridine-2-carboxamide] the figure was 18.5 nM.
With `CC1(C)CC1C(=O)N1CCC2(CC1)CC2CNC(=O)N1Cc2ccncc2C1` (stereo not drawn) [Example 377, N-[[6-(2,2-dimethylcyclopropanecarbonyl)-6-azaspiro[2.5]octan-2-yl]methyl]-1,3-dihydropyrrolo[3,4-c]pyridine-2-carboxamide], the IC50 worked out at 1.59 nM.
Same read-out and setting: with `CN(C)Cc1ccc(C(=O)N2CCC3(CC2)CC3CNC(=O)c2cc3ccncc3o2)cc1` (stereo not drawn) [Example 71, N-[[6-[4-[(dimethylamino)methyl]benzoyl]-6-azaspiro[2.5]octan-2-yl]methyl]furo[2,3-c]pyridine-2-carboxamide] the figure was 13.7 nM.
Still for that read-out and setting: with `O=C(CCc1ccccc1)N1CCC2(CC1)CC2CNC(=O)N1Cc2ccncc2C1` (stereo not drawn) [Example 199, N-[[6-(3-phenylpropanoyl)-6-azaspiro[2.5]octan-2-yl]methyl]-1,3-dihydropyrrolo[3,4-c]pyridine-2-carboxamide] the figure was 184 nM.
As for `CCS(=O)(=O)N1CCC2(CC1)CC2CNC(=O)c1cc2cnccc2[nH]1` (stereo not drawn) [Example 14, N-[(8-ethylsulfonyl-8-azasprio[2.5]octan-2-yl)methyl]-1H-pyrrolo[3,2-c]pyridine-2-carboxamide], the midpoint of inhibition, the IC50, lay at 2000 nM.
Same read-out and setting: with `CC(C)(O)COC(=O)N1CCC2(CC1)CC2CNC(=O)c1cc2cnccc2[nH]1` (stereo not drawn) [Example 401, (2-hydroxy-2-methyl-propyl) 2-[(1H-pyrrolo[3,2-c]pyridine-2-carbonylamino)methyl]-6-azaspiro[2.5]octane-6-carboxylate] the figure was 2000 nM.

Staying with this test, now noted: SRB.
The molecule `CC1(C)CC1C(=O)N1CCC2(CC1)CC2CNC(=O)c1cc2ccncc2o1` (stereo not drawn) [Example 373, N-[[6-(2,2-dimethylcyclopropanecarbonyl)-6-azaspiro[2.5]octan-2-yl]methyl]furo[2,3-c]pyridine-2-carboxamide] had an IC50 of 7.03 nM.
